Source: ChEMBL document CHEMBL1153275, “Tyrokeradines A and B, new bromotyrosine alkaloids with an imidazolyl-quinolinone moiety from a verongid sponge” (2009)
Converted amounts (≈) assume the structure as drawn.

Experiments:
Format in all cases: functional
[1] = test system: Micrococcus luteus; assay: Antimicrobial activity against Micrococcus luteus
[2] = test system: Candida albicans; assay: Antimicrobial activity against Candida albicans
[3] = test system: Trichophyton mentagrophytes; assay: Antimicrobial activity against Trichophyton mentagrophytes
[4] = test system: Aspergillus niger; assay: Antimicrobial activity against Aspergillus niger
[5] = test system: Cryptococcus neoformans; assay: Antimicrobial activity against Cryptococcus neoformans
[6] = test system: Staphylococcus aureus; assay: Antimicrobial activity against Staphylococcus aureus

Row | Structure (SMILES) | MIC [1] [µg/mL] | MIC [2] [µg/mL] | MIC [3] [µg/mL] | MIC [4] [µg/mL] | MIC [5] [µg/mL] | MIC [6] [µg/mL]
1 | C[N+](C)(C)CCCOc1c(Br)cc(C/C(=N\O)C(=O)NCCc2nc(N)[nH]c2-c2cc(O)c3[nH]cc(O)c(=O)c3c2O)cc1Br [TYROKERADINE A] | > 25 | > 25 | > 25 | > 25 | > 25 | > 25
2 | NCCCOc1c(Br)cc(C/C(=N\O)C(=O)NCCc2nc(N)[nH]c2-c2cc(O)c3[nH]cc(O)c(=O)c3c2O)cc1Br [TYROKERADINE B] | 25 (≈ 35.2 µM) | 12.5 (≈ 17.6 µM) | 25 (≈ 35.2 µM) | 12.5 (≈ 17.6 µM) | 12.5 (≈ 17.6 µM) | 25 (≈ 35.2 µM)
